Laboratory results taken from patent publication US10647654B2, “Glucose transport inhibitors and methods of using same” (OHIO UNIVERSITY, priority 2016, dated 2020).

Assays:
Assay type in all cases: cell-based
[1] = tested on: A549 cells; assay: MTT cell proliferation assay in A549 lung cancer cells; conditions: Homo sapiens, DMSO treated cells as negative control, read-out: Cell Growth Inhibition in A549 Cells (at 30 μM)
Experimental: (§1) Compounds EKB-1, EKB-2, EKB-3, EKB-4, JDB-1, and JDB-2 were assayed for their ability to inhibit glucose uptake and cell growth in A549 lung cancer cell lines. A standard glucose uptake assay may be used to evaluate glucose uptake inhibition, and an MTT cell proliferation assay may be used to evaluate cancer cell growth inhibition. […] DMSO treated cells served as the negative control. […] Again, DMSO treated cells served as the negative control.

[2] = tested on: basal glucose transport in A549 cells; assay: standard glucose uptake assay in A549 lung cancer cells; conditions: Homo sapiens, DMSO treated cells as negative control
Experimental: as §1

[3] = tested on: basal glucose transport in H1299 cells; assay: standard glucose uptake assay in H1299 lung cancer cells; conditions: Homo sapiens, NCI-H1299, DMSO treated cells as negative control
Experimental: (§2) Compounds EKB-3 and EKB-4 were assayed for their ability to inhibit glucose uptake and cell growth in H1299 lung cancer cell lines. A standard glucose uptake assay may be used to evaluate glucose uptake inhibition, and an MTT cell proliferation assay may be used to evaluate cancer cell growth inhibition. […] DMSO treated cells served as the negative control. […] Again, DMSO treated cells served as the negative control. The glucose uptake inhibition and cell growth inhibition of comparative compound WZB-134 in H1299 cells is also provided in Table 2.

[4] = tested on: H1299 cells; assay: MTT cell proliferation assay in H1299 lung cancer cells; conditions: Homo sapiens, NCI-H1299, DMSO treated cells as negative control, read-out: Cell Growth Inhibition in H1299 Cells (at 30 μM)
Experimental: as §2

## COC(=O)C(Oc1cc(Cl)ccc1OCc1cccc(O)c1)c1cccc(O)c1 (stereo not shown) [EKB-1]
[1]
  inhibition at 30 µM: 62.2%
[2]
  inhibition at 30 µM: 54.3%

## COC(=O)C(Oc1ccc(Cl)cc1OCc1cccc(O)c1)c1cccc(O)c1 (stereo not shown) [EKB-2]
[1]
  inhibition at 30 µM: 51.5%
[2]
  inhibition at 30 µM: 56.1%

## OCC(Oc1ccc(Cl)cc1OCc1cccc(O)c1)c1cccc(O)c1 (stereo not shown) [EKB-3]
[1]
  inhibition at 30 µM: 55.5%
[2]
  inhibition at 30 µM: 62.8%
[3]
  inhibition at 30 µM: 90.5%
[4]
  inhibition at 30 µM: 54%

## COC(=O)C(Oc1cc(Cl)ccc1OCc1cccc(O)c1)c1cccc(OC)c1 (stereo not shown) [JDB-1]
[1]
  inhibition at 30 µM: 24.6%
[2]
  inhibition at 30 µM: 19.7%

## COc1cccc(C(CO)Oc2cc(Cl)ccc2OCc2cccc(O)c2)c1 (stereo not shown) [JDB-2]
[1]
  inhibition at 30 µM: 39.7%
[2]
  inhibition at 30 µM: 34.8%

## Oc1cccc(COc2cccc(F)c2OCc2cccc(O)c2)c1 [WZB-134, reference compound]
[1]
  inhibition at 30 µM: 10%
[2]
  inhibition at 30 µM: 96%
[3]
  inhibition at 30 µM: 92.5%
[4]
  inhibition at 30 µM: 10.6%
